Measurements from patent US20030203373A1 (priority 2002, published 2003).
Values joined by “and” are separate entries in the source; they are usually repeats but may differ in a detail not shown here. Equal entries are not always repeated. Where two headings read alike, the source gives them in different places. Ends that are not written are not given here.

Target: T1, ACE from pig kidney (Sus scrofa, UniProt F1RRW5)
T1 construct: 1 mU ACE from pig kidney (EC 3.4.15.1 (Sigma)); purchased Sigma; host or cells: pig kidney (tissue-derived enzyme)
T1 sequence (F1RRW5 34-1309): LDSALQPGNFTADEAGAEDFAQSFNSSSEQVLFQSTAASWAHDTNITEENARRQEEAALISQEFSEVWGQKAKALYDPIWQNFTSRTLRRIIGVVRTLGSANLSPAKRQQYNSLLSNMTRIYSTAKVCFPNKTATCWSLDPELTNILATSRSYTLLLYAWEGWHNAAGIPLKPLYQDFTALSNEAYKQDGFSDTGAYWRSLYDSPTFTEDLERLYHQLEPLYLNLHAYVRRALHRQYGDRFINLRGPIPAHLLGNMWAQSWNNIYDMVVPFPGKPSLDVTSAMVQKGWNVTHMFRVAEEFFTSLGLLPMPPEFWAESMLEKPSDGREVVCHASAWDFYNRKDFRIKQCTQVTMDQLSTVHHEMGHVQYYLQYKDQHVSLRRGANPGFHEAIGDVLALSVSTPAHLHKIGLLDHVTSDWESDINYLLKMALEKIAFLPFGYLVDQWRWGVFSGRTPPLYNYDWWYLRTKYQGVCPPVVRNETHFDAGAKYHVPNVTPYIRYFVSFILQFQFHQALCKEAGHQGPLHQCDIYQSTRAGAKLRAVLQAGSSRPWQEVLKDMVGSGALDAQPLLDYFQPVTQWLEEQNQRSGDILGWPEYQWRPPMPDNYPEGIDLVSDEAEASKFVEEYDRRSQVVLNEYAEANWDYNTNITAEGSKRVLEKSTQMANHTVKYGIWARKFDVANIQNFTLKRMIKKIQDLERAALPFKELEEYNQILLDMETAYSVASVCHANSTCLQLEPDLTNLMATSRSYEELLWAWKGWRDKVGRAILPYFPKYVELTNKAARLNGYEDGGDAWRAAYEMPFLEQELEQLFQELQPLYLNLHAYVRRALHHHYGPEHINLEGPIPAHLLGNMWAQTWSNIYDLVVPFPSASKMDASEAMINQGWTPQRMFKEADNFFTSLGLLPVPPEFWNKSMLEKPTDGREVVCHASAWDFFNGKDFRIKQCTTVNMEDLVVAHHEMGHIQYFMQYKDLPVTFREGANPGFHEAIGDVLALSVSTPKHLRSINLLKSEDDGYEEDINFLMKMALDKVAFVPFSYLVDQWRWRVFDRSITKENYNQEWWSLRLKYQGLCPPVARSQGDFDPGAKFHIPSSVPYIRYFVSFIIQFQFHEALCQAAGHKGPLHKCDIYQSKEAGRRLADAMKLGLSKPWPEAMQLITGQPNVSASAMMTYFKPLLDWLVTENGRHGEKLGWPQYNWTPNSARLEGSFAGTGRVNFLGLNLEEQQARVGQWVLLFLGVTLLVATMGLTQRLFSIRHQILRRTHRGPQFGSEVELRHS
Experiment: biochemical
Assay type: biochemical
Source text: These peptides were investigated for their inhibitory effect using an in vitro-ACE-inhibitor-assay with an angiotensin-converting-enzyme derived from pig kidney. Hippuryl-histidyl-leucin was used as a substrate. […] A concrete experimental description is given below.
The principle of the ACE-inhibition-assay was established by Chejung, H. S., Cushman, D. W.: “Inhibition of homogenous angiotensin converting enzyme of rabbit lung by synthetic venom peptides of Bothrops jararaca.” in Biochimica et Biophysica Acta 293, 451-563 (1973).
The assay was performed in 96 well HTRF-plates (Packard). The concentrations used for each well were:
1 mU ACE from pig kidney (EC 3.4.15.1 (Sigma)) in 30 μl of assay buffer (25 mM HEPES; 0,3 M NaCl, pH 8,2) and 20 μl inhibitor dissolved in assay buffer (0,35-200 μM). The reaction was started by adding 50 μl of 2 mM hippuryl-histidyl-leucin (Sigma) in assay buffer. The reaction was performed at room temperature (22° C.) for 30 minutes and terminated by adding 50 μl of 2 M NaOH. Afterwards 50 μl of 0,5% ortho-phtalaldehyd (Sigma) in methanol were added, 5 minutes later followed by 50 μl of 2,5 M HCl-solution to stabilize the developed fluorescence product.
The results were used to calculate the % inhibition. The IC50-values were determined graphically from a curve showing the dose-reaction ratio.
In order to minimize errors due to time-dependent differences, all pipetting steps were performed in a precise time schedule.

[1] = inhibitor 0.78125 μM, replicates A-D
[2] = inhibitor 3.125 μM, replicates A-D
[3] = inhibitor 6.25 μM, replicates A-D
[4] = inhibitor 12.5 μM, replicates A-D
[5] = inhibitor 25 μM, replicates A-D
[6] = inhibitor 50 μM, replicates A-D
[7] = inhibitor 100 μM, replicates A-D
[8] = inhibitor 200 μM, replicates A-D

Molecule: AALSPLPEVPP [Peptide S494]
- IC50 (ACE from pig kidney, determined graphically, read-out: IC50-value (ACE inhibition)): 9 µM
- fluorescence reading (ACE Inhibitor Assay) (inhibitor 0.39 μM, replicates A-D): 704319 and 727603 and 762908 and 659968
- % inhibition (ACE Inhibitor Assay) (inhibitor 0.39 μM, replicates A-D, 0.39 µM): 2.56% and −0.67% and −5.59% and 8.74%
- fluorescence reading (ACE Inhibitor Assay) [1]: 643151 and 655606 and 667363 and 633619
- inhibition at 0.78125 µM [1]: 11.1%
- % inhibition (ACE Inhibitor Assay) (inhibitor 0.78125 μM, replicates A-D, 0.78125 µM): 9.35% and 7.71% and 12.41%
- fluorescence reading (ACE Inhibitor Assay) (inhibitor 1.5625 μM, replicates A-D): 602329 and 645065 and 664903 and 606137
- % inhibition (ACE Inhibitor Assay) (inhibitor 1.5625 μM, replicates A-D, 1.5625 µM): 16.77% and 10.82% and 8.05% and 16.23%
- fluorescence reading (ACE Inhibitor Assay) [2]: 563277 and 547546 and 579178 and 556345
- inhibition at 3.125 µM [2]: 22.2%
- % inhibition (ACE Inhibitor Assay) (inhibitor 3.125 μM, replicates A-D, 3.125 µM): 24.4% and 20% and 23.17%
- fluorescence reading (ACE Inhibitor Assay) [3]: 420434 and 435365 and 427540 and 433344
- inhibition at 6.25 µM [3]: 42.1%
- % inhibition (ACE Inhibitor Assay) (inhibitor 6.25 μM, replicates A-D, 6.25 µM): 40.02% and 41.11% and 40.3%
- fluorescence reading (ACE Inhibitor Assay) [4]: 312590 and 306320 and 319249 and 308116
- inhibition at 12.5 µM [4]: 57.1%
- % inhibition (ACE Inhibitor Assay) (inhibitor 12.5 μM, replicates A-D, 12.5 µM): 57.99% and 56.19% and 57.74%
- fluorescence reading (ACE Inhibitor Assay) [5]: 193365 and 203903 and 204201 and 188693
- inhibition at 25 µM [5]: 73.7%
- % inhibition (ACE Inhibitor Assay) (inhibitor 25 μM, replicates A-D, 25 µM): 72.26% and 72.21% and 74.38%
- fluorescence reading (ACE Inhibitor Assay) [6]: 119135 and 120732 and 124777 and 108988
- inhibition at 50 µM [6]: 84.1%
- % inhibition (ACE Inhibitor Assay) (inhibitor 50 μM, replicates A-D, 50 µM): 83.84% and 83.28% and 85.48%
- fluorescence reading (ACE Inhibitor Assay) [7]: 59914 and 62551 and 64312 and 57543
- inhibition at 100 µM [7]: 92.3%
- % inhibition (ACE Inhibitor Assay) (inhibitor 100 μM, replicates A-D, 100 µM): 91.94% and 91.7% and 92.64%
- fluorescence reading (ACE Inhibitor Assay) [8]: 34342 and 34053 and 34364 and 34738
- inhibition at 200 µM [8]: 95.9%
- % inhibition (ACE Inhibitor Assay) (inhibitor 200 μM, replicates A-D, 200 µM): 95.91% and 95.82%

Molecule: CC[C@H](C)[C@H](NC(=O)[C@H](CCC(N)=O)NC(=O)[C@@H]1CCCN1C(=O)[C@H](CCCNC(=N)N)NC(=O)[C@@H]1CCCN1C(=O)[C@H](Cc1c[nH]c2ccccc12)NC(=O)[C@@H]1CCC(=O)N1)C(=O)N1CCC[C@H]1C(=O)N1CCC[C@H]1C(=O)O [BPP9a, reference compound]
- IC50: 0.097 µM
- fluorescence reading (ACE Inhibitor Assay) (inhibitor 0.0097 μM, replicates A-D): 710140 and 732003 and 790803 and 704452
- % inhibition (ACE Inhibitor Assay) (inhibitor 0.0097 μM, replicates A-D, 0.0097 µM): 17.32% and 14.76% and 7.86% and 17.99%
- fluorescence reading (ACE Inhibitor Assay) (inhibitor 0.0195 μM, replicates A-D): 651703 and 661931 and 697146 and 649942
- % inhibition (ACE Inhibitor Assay) (inhibitor 0.0195 μM, replicates A-D, 0.0195 µM): 22.97% and 18.85% and 24.38%
- fluorescence reading (ACE Inhibitor Assay) (inhibitor 0.039 μM, replicates A-D): 555538 and 591749 and 454421 and 628809
- % inhibition (ACE Inhibitor Assay) (inhibitor 0.039 μM, replicates A-D, 0.039 µM): 35.44% and 31.2% and 47.3% and 26.86%
- fluorescence reading (ACE Inhibitor Assay) (inhibitor 0.078 μM, replicates A-D): 487053 and 445495 and 462323 and 446174
- % inhibition (ACE Inhibitor Assay) (inhibitor 0.078 μM, replicates A-D, 0.078 µM): 48.35% and 46.37% and 48.26%
- fluorescence reading (ACE Inhibitor Assay) (inhibitor 0.15625 μM, replicates A-D): 317736 and 311280 and 262186 and 309352
- % inhibition (ACE Inhibitor Assay) (inhibitor 0.15625 μM, replicates A-D, 0.15625 µM): 64.08% and 69.83% and 64.3%
- fluorescence reading (ACE Inhibitor Assay) (inhibitor 0.3125 μM, replicates A-D): 143514 and 147997 and 149103 and 141700
- % inhibition (ACE Inhibitor Assay) (inhibitor 0.3125 μM, replicates A-D, 0.3125 µM): 83.22% and 83.09% and 83.96%
- fluorescence reading (ACE Inhibitor Assay) (inhibitor 0.625 μM, replicates A-D): 60333 and 60929 and 57514 and 55616
- % inhibition (ACE Inhibitor Assay) (inhibitor 0.625 μM, replicates A-D, 0.625 µM): 93.43% and 93.82% and 94.05%
- fluorescence reading (ACE Inhibitor Assay) (inhibitor 1.25 μM, replicates A-D): 27485 and 26994 and 27156 and 25833
- % inhibition (ACE Inhibitor Assay) (inhibitor 1.25 μM, replicates A-D, 1.25 µM): 97.4% and 97.38% and 97.54%
- fluorescence reading (ACE Inhibitor Assay) (inhibitor 2.5 μM, replicates A-D): 13903 and 14148 and 15119 and 13979
- % inhibition (ACE Inhibitor Assay) (inhibitor 2.5 μM, replicates A-D, 2.5 µM): 98.91% and 98.79% and 98.93%
- fluorescence reading (ACE Inhibitor Assay) (inhibitor 5 μM, replicates A-D): 9634 and 9626 and 9656 and 10561
- % inhibition (ACE Inhibitor Assay) (inhibitor 5 μM, replicates A-D, 5 µM): 99.33%
- inhibition at 0.0195 µM (read-out: % inhibition (ACE Inhibitor Assay), inhibitor 0.0195 μM, replicates A-D): 24.2%
- inhibition at 0.078 µM (read-out: % inhibition (ACE Inhibitor Assay), inhibitor 0.078 μM, replicates A-D): 43.5%
- inhibition at 0.15625 µM (read-out: % inhibition (ACE Inhibitor Assay), inhibitor 0.15625 μM, replicates A-D): 63.3%
- inhibition at 0.3125 µM (read-out: % inhibition (ACE Inhibitor Assay), inhibitor 0.3125 μM, replicates A-D): 83.8%
- inhibition at 0.625 µM (read-out: % inhibition (ACE Inhibitor Assay), inhibitor 0.625 μM, replicates A-D): 93.5%
- inhibition at 1.25 µM (read-out: % inhibition (ACE Inhibitor Assay), inhibitor 1.25 μM, replicates A-D): 97.3%
- inhibition at 2.5 µM (read-out: % inhibition (ACE Inhibitor Assay), inhibitor 2.5 μM, replicates A-D): 98.9%
- inhibition at 5 µM (read-out: % inhibition (ACE Inhibitor Assay), inhibitor 5 μM, replicates A-D): 99.4%
